Here are results for nine molecules from PubChem BioAssay (NCI).

Several values for one entry are separate records, joined by “and”; a condition that tells them apart may be missing. Equal values may be shown once.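 Compound exposure: 48 hours, 5 concentrations, 96-well plates. GI50 is the concentration that inhibits growth by half. The concentration for full growth arrest is given as TGI.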

Holding throughout (experiment): NCI anticancer screen, dose series, 48 h
In experiment [1] the test system is HS 578T breast.
Experiment [2] deals with OVCAR-4 ovarian.
Experiment [3] has as its system SK-MEL-2 melanoma.
Experiment [4] has as its system SNB-75 CNS.
The subject of experiment [5] is MDA-MB-435.
Experiment [6] deals with OVCAR-8 ovarian.
The test system of experiment [7] is T-47D breast.
In experiment [8] the test system is HCC-2998 colon.

For the molecule `CC1(COc2ccc3c(c2)ncn3-c2ccc3cccc(N4CCC(N)CC4)c3n2)COC1`, the GI50 in experiment [1] was 2.08 µM and 0.385 µM; in experiment [2], 2.89 µM and 3.53 µM; in experiment [3] it was 4.96 µM and 3.29 µM; in experiment [4] it was 0.734 µM; in experiment [5] it was 3.06 µM and 3.25 µM; in experiment [6] it was 2.82 µM and 2.84 µM. Besides, the GI50 in experiment [7] is 15.9 µM and > 10 µM; in experiment [8], 2.7 µM and 2.25 µM. Further, the TGI in experiment [1] was 15.3 µM and 4.77 µM; in experiment [2], 8.15 µM and > 10 µM; in experiment [3], 11.9 µM and 6.85 µM; in experiment [4], 5.65 µM; in experiment [5], 10.5 µM and > 10 µM; in experiment [6], 10.7 µM and > 10 µM. Further, the TGI was 30.5 µM and > 10 µM in experiment [7]; 7.51 µM and 7.85 µM in experiment [8].

In the case of `CCC(=C/[C@H](C)C/C=C/C(C)=C/[C@@H](C)C(=O)[C@@H](C)[C@H](O)[C@@H](C)CC)/C=C/[C@H]1OC(=O)C=C[C@@H]1C`, the GI50 in experiment [1], in experiment [2], in experiment [3], in experiment [4], in experiment [5] and in experiment [6] was less than 0.01 µM throughout. Further, the GI50 in experiment [7] and in experiment [8] was less than 0.01 µM in each case. For the same molecule, the TGI in experiment [1] is 1.62 µM; in experiment [2], 3.67 µM; in experiment [4], 0.655 µM; in experiment [5] it was less than 0.0184 µM; in experiment [6], 10.3 µM; in experiment [7], 4.88 µM. The same molecule gave a TGI in experiment [8] of less than 0.01 µM.

As for `O=C(Nc1ccc(Oc2ccc(Nc3nc4ccccc4s3)cc2)cc1)Nc1ccc(Cl)c(C(F)(F)F)c1`, the GI50 in experiment [1] is 2.07 µM; in experiment [2], 1.31 µM; in experiment [3], 2.12 µM; in experiment [4], 1.41 µM; in experiment [5] it was 1.48 µM; in experiment [6], 2.22 µM. Further, the GI50 in experiment [7] is 1.21 µM; in experiment [8] it was 1.87 µM. Besides, the TGI worked out at 7.55 µM in experiment [1]; 3.16 µM in experiment [2]; 4.35 µM in experiment [3]; 5.27 µM in experiment [4]; 3 µM in experiment [5]; 7.29 µM in experiment [6]. Besides, the results for the TGI in experiment [7] and in experiment [8] were 3.96 µM and 3.91 µM, respectively.

For the molecule `CCCCCCCCCCCCC(O)c1ccc(C#CCCCCCCCCCO)o1` (configuration not stated), the GI50 in experiment [1] was 23.8 µM; in experiment [2], 45.1 µM; in experiment [3], 26.4 µM; in experiment [4], 34.1 µM; in experiment [5] it was 18.9 µM; in experiment [6] it was 16.5 µM. In addition, the GI50 in experiment [7] is 44.2 µM; in experiment [8] it was 27.5 µM. For the same molecule, the TGI in experiment [1] is 47.3 µM; in experiment [2], greater than 100 µM; in experiment [3], 81 µM; in experiment [4], 70.1 µM; in experiment [5], 34.3 µM; in experiment [6], 33.6 µM. For the same molecule, the TGI in experiment [7] was greater than 100 µM; in experiment [8], 48.2 µM.

`O=C(CCCSc1nc(-c2ccccc2)cc(-c2ccccc2)n1)NO`: the GI50 in experiment [1] was 2.32 µM; in experiment [2], 1.67 µM; in experiment [3], 2.35 µM; in experiment [4], 1.68 µM; in experiment [5], 2.05 µM; in experiment [6], 0.484 µM. The GI50 was 1.76 µM in experiment [7] and 2.05 µM in experiment [8]. For the same molecule, the TGI worked out at 27 µM in experiment [1]; 14.9 µM in experiment [2]; 12.6 µM in experiment [3]; 9.55 µM in experiment [4]; 10.1 µM in experiment [5]; 18.3 µM in experiment [6]. The TGI is 22 µM in experiment [7] and 6.95 µM in experiment [8].

As to `COC[C@H]1Cn2cc(-c3nc(Nc4ccnn4C)ncc3C)nc2C(=O)N1Cc1ccc(F)c(F)c1`, the GI50 in experiment [1] is 18.5 µM; in experiment [2], 17.8 µM; in experiment [3] it was 0.0964 µM; in experiment [4], 9.59 µM; in experiment [5], 0.186 µM; in experiment [6] it was 98.2 µM. Moreover, the results for the GI50 in experiment [7] and in experiment [8] were 65.5 µM and 0.0673 µM, respectively. The TGI in experiment [1], in experiment [2], in experiment [3], in experiment [4], in experiment [5] and in experiment [6] was greater than 100 µM throughout. The TGI in experiment [7] and in experiment [8] was greater than 100 µM each time.

Regarding `Cc1cc(I)cc(CN(CCCN(C)C)C(C)C)c1O`, the GI50 in experiment [1] was 18.1 µM; in experiment [2], 37.2 µM; in experiment [3] it was 18.2 µM; in experiment [4], 16.6 µM; in experiment [5], 17.3 µM; in experiment [6], 31.6 µM. In addition, the GI50 in experiment [7] is 15.2 µM; in experiment [8] it was 16.5 µM. The TGI is 35.6 µM in experiment [1]; greater than 100 µM in experiment [2]; 35.7 µM in experiment [3]; 36.3 µM in experiment [4]; 35.9 µM in experiment [5]; greater than 100 µM in experiment [6]. For the same molecule, the TGI in experiment [7] is 39.8 µM; in experiment [8] it was 30.6 µM.

Consider `N#CC(C#N)=C/C=C(\Sc1nc2ccccc2s1)c1ccc(Cl)cc1`, for which the GI50 in experiment [1] was 6.68 µM; in experiment [2], 16 µM; in experiment [3], 27.8 µM; in experiment [4] it was 1.31 µM; in experiment [5], 2.86 µM; in experiment [6] it was 7.53 µM. In experiment [8], the GI50 was 13.8 µM. The TGI was 27.9 µM in experiment [1]; 47.5 µM in experiment [2]; greater than 100 µM in experiment [3]; 8.82 µM in experiment [4]; 11.1 µM in experiment [5]; 25 µM in experiment [6]. Moreover, the results for the TGI in experiment [7] and in experiment [8] were greater than 33 µM and 29 µM, respectively.

As to `Nc1n[nH]c2cccc(C#Cc3cccc(C(=O)Nc4ccc(CN5CCOCC5)c(C(F)(F)F)c4)c3)c12`, the GI50 in experiment [1] is 2.19 µM; in experiment [2], 2.15 µM; in experiment [3], 2.07 µM; in experiment [4], 3.21 µM; in experiment [5], 2.22 µM; in experiment [6], 2.54 µM. The figures for the GI50 in experiment [7] and in experiment [8] were 1.18 µM and 3 µM, respectively. Also, the TGI in experiment [1] stood at 8.23 µM; in experiment [2], 6.88 µM; in experiment [3], 5.81 µM; in experiment [4] it was 12.8 µM; in experiment [5] it was 10.5 µM; in experiment [6], 8.18 µM. The results for the TGI in experiment [7] and in experiment [8] were 5.76 µM and 13.9 µM, respectively.
